Consider 38 compounds from patent US20230391739A1, “ARYL DERIVATIVES FOR TREATING TRPM3 MEDIATED DISORDERS” (Katholieke Universiteit Leuven, priority 2020, published 2023).

Structures are written as SMILES.

In this test the target is T1, mouse TRPM3α2 (mTRPM3) ion channel (Mus musculus, UniProt J9SQF3).
T1 construct: expressed in transfected cells; host or cells: flip-in HEK293
Description: TRPM3 ion channel driven Ca2+ uptake, Fluo-4 AM assay, PS-stimulated (mTRPM3). In kind it is cell-based. Particulars: TRPM3 overexpressing flip-in HEK293 cells stimulated with Pregnenolone sulfate (PS) 50 μM, activity ranges A, B, C. In short, it runs like this:
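Ca²⁺ influx through mouse TRPM3α2, opened by 50 μM pregnenolone sulfate, was tracked with Fluo-4 AM in stably transfected HEK293 cells read directly after seeding onto pre-dispensed compound.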

T1 sequence (J9SQF3 1-1709 isoform J9SQF3-12): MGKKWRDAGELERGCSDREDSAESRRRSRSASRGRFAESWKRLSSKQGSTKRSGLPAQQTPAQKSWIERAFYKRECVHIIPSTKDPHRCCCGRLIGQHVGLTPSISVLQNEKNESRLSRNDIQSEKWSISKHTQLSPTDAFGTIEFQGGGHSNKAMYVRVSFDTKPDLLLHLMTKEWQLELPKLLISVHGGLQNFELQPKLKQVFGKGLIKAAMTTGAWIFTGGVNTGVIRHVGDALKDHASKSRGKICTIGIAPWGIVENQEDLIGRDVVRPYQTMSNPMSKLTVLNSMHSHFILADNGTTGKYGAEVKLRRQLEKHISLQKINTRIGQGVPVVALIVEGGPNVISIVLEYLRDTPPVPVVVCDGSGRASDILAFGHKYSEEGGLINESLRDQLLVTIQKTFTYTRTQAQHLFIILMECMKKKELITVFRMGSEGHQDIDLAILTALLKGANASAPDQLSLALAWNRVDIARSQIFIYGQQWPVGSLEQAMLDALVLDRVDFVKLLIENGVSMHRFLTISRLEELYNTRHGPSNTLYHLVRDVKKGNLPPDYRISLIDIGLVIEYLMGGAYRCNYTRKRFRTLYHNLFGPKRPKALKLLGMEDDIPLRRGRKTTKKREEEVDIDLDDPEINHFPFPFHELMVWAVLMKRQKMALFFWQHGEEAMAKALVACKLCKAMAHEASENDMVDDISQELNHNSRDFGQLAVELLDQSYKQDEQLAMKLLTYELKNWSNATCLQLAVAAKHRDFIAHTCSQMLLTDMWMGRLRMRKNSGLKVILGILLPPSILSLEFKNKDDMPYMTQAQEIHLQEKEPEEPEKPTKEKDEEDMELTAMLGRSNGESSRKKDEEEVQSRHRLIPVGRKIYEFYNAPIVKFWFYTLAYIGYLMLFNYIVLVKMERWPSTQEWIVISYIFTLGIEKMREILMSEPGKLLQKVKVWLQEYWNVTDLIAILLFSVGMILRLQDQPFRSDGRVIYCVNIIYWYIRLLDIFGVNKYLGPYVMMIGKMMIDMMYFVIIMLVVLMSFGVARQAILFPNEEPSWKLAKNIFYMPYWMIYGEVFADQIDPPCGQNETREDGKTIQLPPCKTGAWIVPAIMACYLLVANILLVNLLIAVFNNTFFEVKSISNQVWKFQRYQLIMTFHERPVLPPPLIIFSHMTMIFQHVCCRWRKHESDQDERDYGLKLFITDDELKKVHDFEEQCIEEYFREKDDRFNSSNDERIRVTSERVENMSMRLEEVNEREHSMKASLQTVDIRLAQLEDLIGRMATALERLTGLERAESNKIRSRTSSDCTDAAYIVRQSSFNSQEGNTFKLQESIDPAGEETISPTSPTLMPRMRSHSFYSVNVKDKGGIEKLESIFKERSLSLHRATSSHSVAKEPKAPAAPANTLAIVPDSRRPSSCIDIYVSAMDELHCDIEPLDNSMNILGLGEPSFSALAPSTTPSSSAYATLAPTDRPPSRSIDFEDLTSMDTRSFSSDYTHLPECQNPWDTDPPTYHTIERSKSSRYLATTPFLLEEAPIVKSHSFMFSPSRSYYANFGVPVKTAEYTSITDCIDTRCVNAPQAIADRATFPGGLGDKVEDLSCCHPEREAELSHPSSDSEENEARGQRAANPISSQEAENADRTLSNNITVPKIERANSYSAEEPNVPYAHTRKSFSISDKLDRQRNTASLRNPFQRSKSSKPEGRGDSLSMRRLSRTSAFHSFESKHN

Turning to `CCN1CCC(NC(=O)c2c(C)oc3ccc(OCc4ccccc4)cc23)CC1` [Cpd 151, 5-(benzyloxy)-N-(1-ethylpiperidin-4-yl)-2-methylbenzofuran-3-carboxamide], the IC50 (in general, the concentration that gives 50% inhibition) was < 1000 nM.

For `Cc1ccccc1COc1ccc2oc(C)c(C(=O)N[C@H]3CCNC3)c2c1` [Cpd 083, (S)-2-methyl-5-((2-methylbenzyl)oxy)-N-(pyrrolidin-3-yl)benzofuran-3-carboxamide], the half-inhibitory concentration (IC50) is < 1000 nM.

The compound `Cc1oc2ccc(OCc3ccccc3)cc2c1C(=O)NCc1ccncc1` [Cpd 101, 5-(benzyloxy)-2-methyl-N-(pyridin-4-ylmethyl)benzofuran-3-carboxamide] had an IC50 of 1000 to 20000 nM.

Compound `Cc1oc2ccc(OCc3ccccc3)cc2c1C(=O)N[C@H]1CC[C@H](N)CC1` [Cpd 120, N-(trans-4-aminocyclohexyl)-5-(benzyloxy)-2-methylbenzofuran-3-carboxamide] came in with a 50% inhibitory concentration (IC50) of 1000 to 20000 nM.

`Cc1oc2ccc(OCc3ccccc3)cc2c1C(=O)N[C@H]1CC2CC[C@H](C1)N2C(=O)OC(C)(C)C` [Cpd 258, tert-butyl (1R,3s,5S)-3-(5-(benzyloxy)-2-methylbenzofuran-3-carboxamido)-8-azabicyclo-[3.2.1]octane-8-carboxylate]: the IC50 was < 1000 nM.

On to `Cc1oc2ccc(OCc3ccccc3)cc2c1C(=O)N[C@H]1CC[C@@H](O)CC1` [Cpd 125, 5-(benzyloxy)-N-(cis-4-hydroxycyclohexyl)-2-methylbenzofuran-3-carboxamide], for which the IC50 is < 1000 nM.

Regarding `CNC(=O)[C@@H]1C[C@@H](NC(=O)c2c(C)oc3ccc(OCc4ccccc4)cc23)CN1` [Cpd 188, (2S,4R)-4-(5-(benzyloxy)-2-methylbenzofuran-3-carboxamido)-N-methylpyrrolidine-2-carboxamide], the concentration for half-maximal inhibition (IC50) lay within 1000 to 20000 nM.

`Cc1oc2ccc(OCc3ccccc3)cc2c1C(=O)NCCc1ccncc1` [Cpd 139, 5-(benzyloxy)-2-methyl-N-(2-(pyridin-4-yl)ethyl)benzofuran-3-carboxamide] gave an IC50 of 1000 to 20000 nM.

Regarding `Cc1oc2ccc(OCc3ccccc3F)cc2c1C(=O)NC1(CO)CCNC1=O` (single isomer, unassigned) [Cpd 334-En 1], the IC50 was < 1000 nM.

Turning to `Cc1oc2ccc(OCc3ccccc3)cc2c1C(=O)NC1CC1` [Cpd 039, 5-(benzyloxy)-N-cyclopropyl-2-methylbenzofuran-3-carboxamide], the IC50 lay within 1000 to 20000 nM.

On to `Cc1oc2ccc(OC(C)c3ccccc3)cc2c1C(=O)NC1(CO)CCOCC1` (single isomer, unassigned) [Cpd 308-En 2, N-(4-(hydroxymethyl)tetrahydro-2H-pyran-4-yl)-2-methyl-5-(1-phenylethoxy)benzofuran-3-carboxamide], for which the half-inhibitory concentration (IC50) is < 1000 nM.

On to `Cc1oc2ccc(OCc3ccccc3)cc2c1C(=O)N[C@H]1CCCNC1=O` [Cpd 109, (S)-5-(benzyloxy)-2-methyl-N-(2-oxopiperidin-3-yl)benzofuran-3-carboxamide], for which the IC50 was < 1000 nM.

Take `Cc1oc2ccc(OCc3ccccc3)cc2c1C(=O)NC1CNCC1F` (racemic) [Cpd 094, rac-5-(benzyloxy)-N-(cis-4-fluoropyrrolidin-3-yl)-2-methylbenzofuran-3-carboxamide]: the 50% inhibitory concentration (IC50) was < 1000 nM.

Compound `Cc1oc2ccc(OC(CN(C)C)c3ccccc3)cc2c1C(=O)N[C@@H](CO)C(N)=O` (single isomer, unassigned) [Cpd 347-En 1] had an IC50 of 1000 to 20000 nM.

On to `Cc1oc2ccc(OCc3ccccc3)cc2c1C(=O)NC1CCC(O)C1` (centres unmarked) [Cpd 086, 5-(benzyloxy)-N-(3-hydroxycyclopentyl)-2-methylbenzofuran-3-carboxamide], for which the concentration for half-maximal inhibition (IC50) was < 1000 nM.

In the case of `Cc1oc2ccc(OCc3ccccc3)cc2c1C(=O)N[C@@H]1CCCNC1=O` [Cpd 107, (R)-5-(benzyloxy)-2-methyl-N-(2-oxopiperidin-3-yl)benzofuran-3-carboxamide], the IC50 was < 1000 nM.

In the case of `Cc1oc2ccc(OCc3ccccc3C(F)(F)F)cc2c1C(=O)NC1CCNC1=O` (centres unmarked) [Cpd 219, 2-methyl-N-(2-oxopyrrolidin-3-yl)-5-((2-(trifluoromethyl)benzyl)oxy)benzofuran-3-carboxamide], the IC50 was < 1000 nM.

As to `Cc1oc2ccc(OCc3ccccc3)cc2c1C(=O)N[C@H]1CCN(C(=O)OC(C)(C)C)C1` [Cpd 239, tert-butyl (S)-3-(5-(benzyloxy)-2-methylbenzofuran-3-carboxamido)pyrrolidine-1-carboxylate], the IC50 is 1000 to 20000 nM.

In turn, `Cc1oc2ccc(OCc3ccccc3S(C)(=O)=O)cc2c1C(=O)NC1CCNCC1(F)F` (single isomer, unassigned) [Cpd 333-En 1, N-(3,3-difluoropiperidin-4-yl)-2-methyl-5-((2-(methylsulfonyl)benzyl)oxy)benzofuran-3-carboxamide] registered an IC50 of 1000 to 20000 nM.

With `Cc1oc2ccc(OCc3ccccc3F)cc2c1C(=O)NC1CCN(CCO)C1=O` (single isomer, unassigned) [Cpd 311-En 2, 5-((2-Fluorobenzyl)oxy)-N-(1-(2-hydroxyethyl)-2-oxopyrrolidin-3-yl)-2-methylbenzofuran-3-carboxamide], the IC50 was < 1000 nM.

`Cc1oc2ccc(OCc3ccccc3OCCN(C)C)cc2c1C(=O)NC1CCN(C)CC1` [Cpd 250, 5-((2-(2-(dimethylamino)ethoxy)benzyl)oxy)-2-methyl-N-(1-methylpiperidin-4-yl)benzofuran-3-carboxamide]: the half-maximal inhibitory concentration (IC50) is > 20000 nM.

As for `Cc1oc2ccc(OCc3cccc(C(F)(F)F)c3)cc2c1C(=O)NC1CCN(C)CC1` [Cpd 232, 2-methyl-N-(1-methylpiperidin-4-yl)-5-((3-(trifluoromethyl)benzyl)oxy)benzofuran-3-carboxamide], the IC50 was in the range of 1000 to 20000 nM.

Regarding `Cc1oc2ccc(COc3ccccc3F)cc2c1C(=O)NC(CO)C(N)=O` (single isomer, unassigned) [Cpd 321-En 1, N-(1-amino-3-hydroxy-1-oxopropan-2-yl)-5-((2-fluorophenoxy)methyl)-2-methylbenzofuran-3-carboxamide], the IC50 lay in the range of 1000 to 20000 nM.

Consider `Cc1oc2ccc(OCc3ccccc3)cc2c1C(=O)N[C@H]1C[C@H](O)C1` [Cpd 053, 5-(benzyloxy)-N-(trans-3-hydroxycyclobutyl)-2-methylbenzofuran-3-carboxamide], for which the concentration for half-maximal inhibition (IC50) was < 1000 nM.

Take `Cc1oc2ccc(OCc3ccccc3)cc2c1C(=O)NC1CNC1` [Cpd 042, N-(azetidin-3-yl)-5-(benzyloxy)-2-methylbenzofuran-3-carboxamide]: the concentration for half-maximal inhibition (IC50) is > 20000 nM.

For `Cc1oc2ccc(OCc3cccc(F)c3)cc2c1C(=O)NC1CCN(C)CC1` [Cpd 168, 5-((3-fluorobenzyl)oxy)-2-methyl-N-(1-methylpiperidin-4-yl)benzofuran-3-carboxamide], the half-maximal inhibitory concentration (IC50) was in the range of 1000 to 20000 nM.

As for `Cc1oc2ccc(OCc3ccccc3)cc2c1C(=O)NC1CCN(C)C(C)C1` (centres unmarked) [Cpd 155, 5-(benzyloxy)-N-(1,2-dimethylpiperidin-4-yl)-2-methylbenzofuran-3-carboxamide], the 50% inhibitory concentration (IC50) is < 1000 nM.

`Cc1oc2ccc(OCc3ccccc3Cl)cc2c1C(=O)O` [Cpd 018, 5-((2-chlorobenzyl)oxy)-2-methylbenzofuran-3-carboxylic acid] registered an IC50 of 1000 to 20000 nM.

The compound `Cc1oc2ccc(OCc3ccccc3COC3CCCCO3)cc2c1C(=O)NC1CCN(C)CC1` (centres unmarked) [Cpd 260, 2-methyl-N-(1-methylpiperidin-4-yl)-5-((2-(((tetrahydro-2H-pyran-2-yl)oxy)methyl)benzyl)oxy)benzofuran-3-carboxamide] showed a concentration for half-maximal inhibition (IC50) of 1000 to 20000 nM.

Consider `Cc1oc2ccc(OCc3ccccc3)cc2c1C(=O)NC1CC2CCC(C1)N2C` (centres unmarked) [Cpd 181, 5-(benzyloxy)-2-methyl-N-(8-methyl-8-azabicyclo[3.2.1]octan-3-yl)benzofuran-3-carboxamide], for which the concentration for half-maximal inhibition (IC50) is < 1000 nM.

`Cc1oc2ccc(OCc3ccccc3)cc2c1C(=O)NCc1cnccn1` [Cpd 102, 5-(benzyloxy)-2-methyl-N-(pyrazin-2-ylmethyl)benzofuran-3-carboxamide] returned an IC50 of 1000 to 20000 nM.

Consider `Cc1oc2ccc(OCc3ccccc3)cc2c1C(=O)N[C@@H]1C[C@H]2CC[C@@H](C1)N2C` [Cpd 182, 5-(benzyloxy)-2-methyl-N-((1R,3s,5S)-8-methyl-8-azabicyclo[3.2.1]octan-3-yl)benzofuran-3-carboxamide], for which the half-maximal inhibitory concentration (IC50) was < 1000 nM.

As to `Cc1oc2ccc(OCc3ccccc3F)cc2c1C(=O)NC1CCNC1=O` (centres unmarked) [Cpd 129, 5-((2-fluorobenzyl)oxy)-2-methyl-N-(2-oxopyrrolidin-3-yl)benzofuran-3-carboxamide], the concentration for half-maximal inhibition (IC50) was < 1000 nM.

Turning to `Cc1oc2ccc(OCc3ccccc3)cc2c1C(=O)NC1CCN2CCCC12` (single isomer, unassigned) [Cpd 144-Dia 2, 5-(benzyloxy)-N-(hexahydro-1H-pyrrolizin-1-yl)-2-methylbenzofuran-3-carboxamide], the concentration for half-maximal inhibition (IC50) was < 1000 nM.

For the compound `Cc1oc2ccc(OCc3ccccc3F)cc2c1C(=O)NC1(CO)CCOC1` (single isomer, unassigned) [Cpd 327-En 1, 5-((2-fluorobenzyl)oxy)-N-(3-(hydroxymethyl)tetrahydrofuran-3-yl)-2-methylbenzofuran-3-carboxamide], the IC50 is < 1000 nM.

As for `Cc1oc2ccc(OCc3ccccc3)cc2c1C(=O)NS(=O)(=O)C1CC1` [Cpd 133, 5-(benzyloxy)-N-(cyclopropylsulfonyl)-2-methylbenzofuran-3-carboxamide], the IC50 is < 1000 nM.

With `Cc1oc2c(Cl)cc(OCc3ccccc3)cc2c1C(=O)NC1CNCC1(F)F` (single isomer, unassigned) [Cpd 304-En 1, 5-(benzyloxy)-7-chloro-N-(4,4-difluoropyrrolidin-3-yl)-2-methylbenzofuran-3-carboxamide], the half-inhibitory concentration (IC50) lay within 1000 to 20000 nM.

As to `Cc1oc2ccc(OCc3ccc(C(F)(F)F)cc3)cc2c1C(=O)O` [Cpd 026, 2-methyl-5-((4-(trifluoromethyl)benzyl)oxy)benzofuran-3-carboxylic acid], the half-inhibitory concentration (IC50) is > 20000 nM.
